Experimental findings from publication PMC7140427, “A Unique GSK-3β inhibitor B10 Has a Direct Effect on Aβ, Targets Tau and Metal Dyshomeostasis, and Promotes Neuronal Neurite Outgrowth” (Cells, 2020) are described below.

The target in the test is T1, GSK-3β (Homo sapiens, UniProt P49841).
T1 construct: gene GSK3B
The test can be described thus: caliper mobility shift kinase assay with peptide FAM-P15 and ATP. Format: biochemical.

T1 sequence (P49841 whole entry): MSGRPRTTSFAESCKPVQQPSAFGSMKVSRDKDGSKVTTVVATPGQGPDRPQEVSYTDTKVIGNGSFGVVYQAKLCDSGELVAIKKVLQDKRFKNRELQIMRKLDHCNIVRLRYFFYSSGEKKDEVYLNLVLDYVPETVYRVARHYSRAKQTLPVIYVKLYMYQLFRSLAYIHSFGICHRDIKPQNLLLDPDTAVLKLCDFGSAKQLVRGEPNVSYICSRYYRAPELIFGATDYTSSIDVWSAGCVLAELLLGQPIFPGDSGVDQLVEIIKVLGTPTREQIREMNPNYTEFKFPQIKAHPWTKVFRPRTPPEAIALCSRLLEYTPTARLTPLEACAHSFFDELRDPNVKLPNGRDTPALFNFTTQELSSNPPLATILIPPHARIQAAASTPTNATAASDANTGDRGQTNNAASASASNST

On to `Oc1cc(-c2c[nH]c3ncc(-c4ccc(CNc5ccncc5)cc4)cc23)cc2cccnc12` [B10, 6-(5-(4-((pyridin-4-ylamino)methyl)phenyl)-1H-pyrrolo[2,3-b]pyridin-3-yl)quinolin-8-ol], for which the IC50 was 66 ± 2.5 nM.

A word on the IC50: it is the concentration needed to halve the response being measured.
